Measurements reported in US6825340B2, “Methods and reagents for inactivating ribonucleases” (Ambion, Inc., priority 1998, dated 2004).

Columns and labels:
[1] = test system: RNase mixture (RNase A, RNase 1, RNase T1); assay: Non-isotopic RNase inactivation assay (mouse total RNA, agarose gel); assay type: biochemical, human, E. coli and a fungus
From the text: The inventors routinely perform assays on RNA designed to assess RNase activity in a sample. Two different assays are typically used for the detection of ribonuclease activity, non-isotopic and isotopic. […] In both assays, the inactivation process is typically performed on a mixture of three different ribonucleases: RNase A, RNase 1, and RNase T1. Each ribonuclease is purified from a different species: […], E. coli and a fungus, respectively. The three RNases are very different from each other in their origin, substrate specificity and protein sequence. In this way, the inactivation process can test three completely different but well characterized ribonucleases. The standard stock RNase mixture employed in the following examples is prepared by combining 1 μl RNase 1 (100 U/μl; Ambion), 1 μl RNase cocktail (RNase A, 0.5 U/μl; RNase T1, 20 U/μl, Ambion) and 98 μl water. The non-isotopic assay uses total RNA isolated from mouse as the substrate for the RNase mixture. […] A quantity of 4 μg of total RNA isolated from mouse liver or brain was dissolved in an aqueous solution, usually water or 1 mM sodium citrate (pH 6.6). The treated ribonuclease sample was added to the total RNA and then incubated at 37° C. for 1 or 16 hours, depending on the sensitivity desired for the assay. After incubation, the RNA was fractionated in a formaldehyde 1% agarose gel. The RNA was detected by staining with ethidium bromide and then illuminating the gel with ultraviolet light. The RNA fluoresces in the gel. Untreated total RNA was also fractionated as a control with the test samples for comparative purposes. […] Intact total RNA has two major bands produced by the 28S and 18S ribosomal RNA. […] The RNase cocktail was made to various concentrations in different buffers in different DTT concentrations and incubated at 37° C. or 60° C. for 20 minutes. Total mouse RNA was added to the treated RNase mixture and incubated at 37° C. for one hour, fractionated in a formaldehyde denaturing 1% agarose gel and the RNA visualized by ethidium bromide staining and UV fluorescence.

[2] = test system: AMV reverse transcriptase; assay: Reverse transcription reaction (RETROscript kit), dCTP[α-32P] incorporation; assay type: biochemical; details: 20 mM reducing reagent
Description: (§1) FIG. 2. […] Reverse transcriptions were performed using the RETROscript™ kit (Ambion, Inc.). Mouse total RNA in DEPC-treated water was reverse transcribed with either MMLV or AMV reverse transcriptase in the presence or absence of 20 mM DTT. dCTP[α^32P] was included in the reactions to measure the efficiency of reverse transcription. Following incubation at 42° C. for 1 h, 5 μl of each reaction was subjected to TCA precipitation to measure the amount of dCTP[α^32P] incorporated into cDNA by reverse transcription.
(§2) The reverse transcription reactions were performed using the RETROscript™ kit (Ambion, Inc.). The following were assembled with or without 20 mM of the reducing reagents in a final volume of 19 μl: dNTPs (0.5 mM each), oligo dT (5 μM), 0.4 μl dCTP[α-^32p] (3000 Ci/mmol), 10 mM Tris-HCl (pH 8.3): 50 mM KCl: 1.5 mM MgCl2, mouse brain total RNA (4 μg). The reaction mixtures were incubated at 65° C. for 10 minutes. 1 μl (100 units) of AMV or MMLV reverse transcriptase were added and then the reactions were incubated at 42° C. for 1 hour. Reverse transcription by either enzyme was not inhibited by DTT (FIG. 2) or by DTE or β-mercaptoethanol.

[3] = target: T1, MMLV reverse transcriptase (Moloney murine leukemia virus, UniProt P03355); assay: as above; assay type: biochemical; details: 20 mM reducing reagent
T1 construct: purchased Ambion, Inc
Description: as §1, §2

T3 RNA polymerase = target: T2, T3 RNA polymerase (Enterobacteria phage T3, UniProt P07659); assay: In vitro transcription reaction (MAXIscript kit), UTP[α-32P] incorporation; assay type: biochemical; details: 20 mM reducing reagent
T2 construct: purchased Ambion, Inc
Description: (§3) FIG. 3. […] Transcriptions were performed with T7, T3 and SP6 RNA polymerase in the presence and absence of 20 mM DTT. For each RNA polymerase reaction, pTRI-Xef DNA was the template and UTP[α^32P] was included to measure the efficiency of transcription. Duplicates were performed for each reaction. TCA precipitations were performed on each transcription reaction to measure the percent of the UTP[α^32P] incorporated into RNA.
(§4) The transcription reactions were based on the MAXIscript™ transcription kit (Ambion, Inc.). The following were assembled with or without 20 mM reducing reagent in a final volume of 18 μl: NTPs (0.5 mM each), 1 μg linearized DNA template, 2 μl 10 × transcription buffer, and 0.2 μl UTP [α-^32P] (800 Ci/mmol). The reaction mixtures were incubated 60° C. for 10 minutes and then 2 μl of the either SP6, T7 or T3 RNA polymerase (10 units/μl) were added to the reactions, incubated 30° C. for 60 minutes and then TCA precipitated to assess the incorporation of the radioactive label.

SP6 RNA polymerase = target: T3, SP6 RNA polymerase (Enterobacteria phage SP6, UniProt P06221); assay: as above; assay type: biochemical; details: 20 mM reducing reagent
T3 construct: purchased Ambion, Inc
T3 sequence (P06221 1-874): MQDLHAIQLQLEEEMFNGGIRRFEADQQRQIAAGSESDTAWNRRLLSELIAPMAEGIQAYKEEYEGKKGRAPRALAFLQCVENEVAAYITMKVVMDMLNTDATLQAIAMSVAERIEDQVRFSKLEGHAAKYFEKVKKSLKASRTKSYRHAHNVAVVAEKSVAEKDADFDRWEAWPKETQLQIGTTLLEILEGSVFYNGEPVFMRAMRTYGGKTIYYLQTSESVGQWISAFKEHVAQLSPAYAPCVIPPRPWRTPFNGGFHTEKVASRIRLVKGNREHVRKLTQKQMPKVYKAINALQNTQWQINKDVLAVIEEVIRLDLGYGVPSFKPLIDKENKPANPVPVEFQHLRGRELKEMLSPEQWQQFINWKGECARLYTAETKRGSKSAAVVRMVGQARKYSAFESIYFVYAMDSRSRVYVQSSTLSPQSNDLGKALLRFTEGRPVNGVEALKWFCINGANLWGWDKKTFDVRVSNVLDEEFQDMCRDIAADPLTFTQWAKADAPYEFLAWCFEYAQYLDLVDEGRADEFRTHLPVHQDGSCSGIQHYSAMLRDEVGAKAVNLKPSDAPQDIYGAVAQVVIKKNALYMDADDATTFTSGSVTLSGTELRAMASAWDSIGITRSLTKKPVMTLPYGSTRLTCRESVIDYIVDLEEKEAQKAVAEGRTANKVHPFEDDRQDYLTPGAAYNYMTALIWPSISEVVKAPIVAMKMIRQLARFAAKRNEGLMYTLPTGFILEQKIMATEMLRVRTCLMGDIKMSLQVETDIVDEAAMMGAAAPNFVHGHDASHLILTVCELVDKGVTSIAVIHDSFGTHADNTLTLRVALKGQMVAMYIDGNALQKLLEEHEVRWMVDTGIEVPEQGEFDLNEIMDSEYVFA
Description: as §3, §4

T7 RNA polymerase = target: T4, T7 RNA polymerase (Escherichia phage T7, UniProt P00573); assay: as above; assay type: biochemical; details: 20 mM reducing reagent
T4 construct: purchased Ambion, Inc
Description: as §3, §4

DNase I = DNase I (Bos taurus, UniProt P00639); assay: DNase I activity after reducing/heat treatment, plasmid DNA degradation; assay type: biochemical; details: 20 mM reducing reagent in water; DNase I 0.4 units/μl; 60° C. for 20 minutes
Description: DNase I is commonly used to degrade contaminating DNA in RNA preparations. To test whether the inactivation method affected DNase I activity, DNase I (final concentration of 0.4 units/μl) was added to water containing 20 mM DTT, DTE or β-mercaptoethanol. The mixture was incubated at 60° C. for 20 minutes. After the heat treatment, the DNase I activity was tested by incubating the treated DNase I with plasmid DNA (0.2 μg/μl ) at 37° C. for one hour followed by electrophoresis in a 1% agarose gel.

[4] = reducing reagent 20 mM, RNase mixture 200 ng/ml, 60° C. for 20 minutes

T4 sequence (P00573 whole entry): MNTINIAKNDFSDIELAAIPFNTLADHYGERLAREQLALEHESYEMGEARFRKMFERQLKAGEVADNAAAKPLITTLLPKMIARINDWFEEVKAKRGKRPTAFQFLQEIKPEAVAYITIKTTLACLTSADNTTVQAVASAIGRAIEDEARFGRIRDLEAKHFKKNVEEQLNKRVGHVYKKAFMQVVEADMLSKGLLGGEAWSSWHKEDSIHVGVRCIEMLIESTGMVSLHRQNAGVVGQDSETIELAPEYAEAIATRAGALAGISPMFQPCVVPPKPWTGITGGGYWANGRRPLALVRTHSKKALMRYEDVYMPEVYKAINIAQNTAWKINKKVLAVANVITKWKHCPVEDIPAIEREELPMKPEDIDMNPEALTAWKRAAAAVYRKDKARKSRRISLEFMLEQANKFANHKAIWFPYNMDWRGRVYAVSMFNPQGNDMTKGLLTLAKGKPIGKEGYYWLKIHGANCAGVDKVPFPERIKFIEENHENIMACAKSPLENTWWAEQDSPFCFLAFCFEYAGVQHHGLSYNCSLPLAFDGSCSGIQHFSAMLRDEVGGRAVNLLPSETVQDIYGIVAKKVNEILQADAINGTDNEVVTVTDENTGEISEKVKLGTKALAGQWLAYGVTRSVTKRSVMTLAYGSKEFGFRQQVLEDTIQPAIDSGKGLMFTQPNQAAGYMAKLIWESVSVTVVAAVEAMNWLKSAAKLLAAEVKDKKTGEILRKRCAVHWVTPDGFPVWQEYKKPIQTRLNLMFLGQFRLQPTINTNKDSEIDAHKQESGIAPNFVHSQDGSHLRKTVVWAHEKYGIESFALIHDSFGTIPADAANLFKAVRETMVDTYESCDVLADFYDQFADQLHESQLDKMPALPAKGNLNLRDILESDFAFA
Chain of DNase I (P00639 23-282): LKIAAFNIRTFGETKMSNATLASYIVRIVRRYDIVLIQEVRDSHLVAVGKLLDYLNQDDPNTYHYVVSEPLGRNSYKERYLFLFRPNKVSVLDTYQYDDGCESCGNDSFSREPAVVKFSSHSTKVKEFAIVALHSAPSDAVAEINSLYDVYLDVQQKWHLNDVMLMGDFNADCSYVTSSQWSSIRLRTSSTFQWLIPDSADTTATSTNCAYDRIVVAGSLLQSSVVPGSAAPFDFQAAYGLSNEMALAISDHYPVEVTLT
T2 sequence (P07659 whole entry): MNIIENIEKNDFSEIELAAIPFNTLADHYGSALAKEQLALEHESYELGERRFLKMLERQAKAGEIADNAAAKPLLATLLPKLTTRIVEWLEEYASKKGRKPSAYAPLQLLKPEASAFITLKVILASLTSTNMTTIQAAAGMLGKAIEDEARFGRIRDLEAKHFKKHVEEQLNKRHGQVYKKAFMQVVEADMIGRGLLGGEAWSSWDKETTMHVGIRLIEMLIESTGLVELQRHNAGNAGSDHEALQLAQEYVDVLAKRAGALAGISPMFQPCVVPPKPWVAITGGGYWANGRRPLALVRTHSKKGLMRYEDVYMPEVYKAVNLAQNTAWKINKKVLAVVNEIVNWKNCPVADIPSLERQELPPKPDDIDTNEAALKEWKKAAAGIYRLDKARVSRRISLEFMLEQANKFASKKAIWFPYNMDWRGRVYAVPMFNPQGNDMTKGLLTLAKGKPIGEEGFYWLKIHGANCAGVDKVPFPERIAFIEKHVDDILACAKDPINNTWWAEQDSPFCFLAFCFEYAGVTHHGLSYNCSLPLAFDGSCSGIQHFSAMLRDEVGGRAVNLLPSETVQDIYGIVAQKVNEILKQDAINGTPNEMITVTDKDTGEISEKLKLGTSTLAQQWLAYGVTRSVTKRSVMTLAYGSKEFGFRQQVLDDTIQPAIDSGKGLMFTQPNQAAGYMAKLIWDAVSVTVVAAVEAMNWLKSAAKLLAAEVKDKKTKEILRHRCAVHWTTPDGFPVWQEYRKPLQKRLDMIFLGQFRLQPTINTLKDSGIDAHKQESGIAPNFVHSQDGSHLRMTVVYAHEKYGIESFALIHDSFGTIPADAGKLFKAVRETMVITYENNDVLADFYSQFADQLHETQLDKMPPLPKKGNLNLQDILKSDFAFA

Compound | RNase mixture inactivation [1, 4] | inhibition of reverse transcription by AMV reverse transcriptase [2] | inhibition of reverse transcription by MMLV reverse transcriptase [3] | inhibition of T3 RNA polymerase transcription (T3 RNA polymerase) | inhibition of SP6 RNA polymerase transcription (SP6 RNA polymerase) | inhibition of T7 RNA polymerase transcription (T7 RNA polymerase) | DNase I activity after reducing/heat treatment (DNase I) | RNase mixture inactivation ([1]; 10 mM cysteine, RNase mixture 200 ng/ml, 1 mM sodium citrate (pH 6.4), 68° C. for 20 minutes) | RNase mixture inactivation ([1]; 20 mM cysteine, RNase mixture 200 ng/ml, 1 mM sodium citrate (pH 6.4), 68° C. for 20 minutes) | RNase mixture inactivation ([1]; 40 mM cysteine, RNase mixture 200 ng/ml, 1 mM sodium citrate (pH 6.4), 68° C. for 20 minutes) | RNase mixture inactivation ([1]; 60 mM cysteine, RNase mixture 200 ng/ml, 1 mM sodium citrate (pH 6.4), 68° C. for 20 minutes) | RNase mixture inactivation ([1]; heated DTT diluted to 20 mM, RNase mixture 200 ng/ml in water, 60° C. for 20 minutes)
O[C@H](CS)[C@@H](O)CS [DTE, dithioerythritol] | inactivate RNase activity completely | not inhibited | not inhibited | None of the three polymerases were inhibited | None of the three polymerases were inhibited | None of the three polymerases were inhibited | not affected |  |  |  |  | 
N[C@@H](CS)C(=O)O [cysteine] |  |  |  |  |  |  |  | inactivated | inactivated | inactivated | inactivated | 
OC1CSSCC1O (stereo not shown) [oxidized DTT] |  |  |  |  |  |  |  |  |  |  |  | did not inactivate
OCCS [β-mercaptoethanol] | inactivate RNase activity completely | not inhibited | not inhibited | None of the three polymerases were inhibited | None of the three polymerases were inhibited | None of the three polymerases were inhibited | not affected |  |  |  |  | 
